Values quoted from earlier work in patent US20150119272A1, “DOSE-RESPONSE MEDICAL OUTCOME MODEL PREDICTOR SYSTEM AND METHOD” (ROYAL COLLEGE OF SURGEONS IN IRELAND, priority 2012, published 2015).

Assays:
Bcl-(X)L = Bcl-(X)L (Homo sapiens, UniProt Q07817); details: binding to Bcl-(X)L; taken from literature (Lessene et al. 2008)
Mcl-1 = Mcl-1 (Homo sapiens, UniProt Q07820); details: binding to Mcl-1; taken from literature (Lessene et al. 2008)
Sequence of Mcl-1 (Q07820 whole entry, species assumed): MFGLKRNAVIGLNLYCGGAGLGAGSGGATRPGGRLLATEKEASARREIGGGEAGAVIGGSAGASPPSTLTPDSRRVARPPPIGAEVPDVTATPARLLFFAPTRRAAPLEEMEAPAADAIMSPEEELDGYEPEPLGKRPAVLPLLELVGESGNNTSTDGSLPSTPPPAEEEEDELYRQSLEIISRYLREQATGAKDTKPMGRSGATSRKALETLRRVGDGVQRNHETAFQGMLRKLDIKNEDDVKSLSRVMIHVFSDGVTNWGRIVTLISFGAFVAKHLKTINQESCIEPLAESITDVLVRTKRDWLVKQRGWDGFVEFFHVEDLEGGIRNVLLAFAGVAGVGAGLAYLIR

Sequence of Bcl-(X)L (Q07817 whole entry, species assumed): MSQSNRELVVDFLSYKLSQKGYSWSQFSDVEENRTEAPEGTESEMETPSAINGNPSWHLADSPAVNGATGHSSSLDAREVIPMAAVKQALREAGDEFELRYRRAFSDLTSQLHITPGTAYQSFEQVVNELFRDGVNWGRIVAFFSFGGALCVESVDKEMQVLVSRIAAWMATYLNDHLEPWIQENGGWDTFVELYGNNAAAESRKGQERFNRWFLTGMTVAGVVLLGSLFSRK

For `Cc1cc2c(C(C)C)c(O)c(O)c(C=O)c2c(O)c1-c1c(C)cc2c(C(C)C)c(O)c(O)c(C=O)c2c1O` [Gossypol], the Kd (Bcl-(X)L) is listed as 660 nM and the Kd (Mcl-1) is listed as 25 nM.
